In patent US20220017572A1, “GEMINOID LIPOPEPTIDE COMPOUNDS AND THEIR USES” (Erasmus University Medical Center Rotterdam, priority 2016, published 2022):
Non-standard residues stand in square brackets, D forms with d. Residues, ends and D or L forms follow the SMILES beside them. C16 = C16 alkyl chain at peptide end (geminoid)

Legend:
[1] = system: DENV2 protease replicon; assay: DENV2 protease replicon assay; assay type: cell-based; details: lowest concentration with observed activity in replicon assay
[2] = biological target: T1, DENV2 protease (Dengue virus type 2, UniProt P14340); assay: DENV2 protease biochemical assay; details: for inhibition at 50 µM / % Inhibition at 50 μM (2): 50 μM inhibitor
T1 construct: The active site of the dengue protease is in the N-terminal part of NS3

[3] = biological target: thrombin (Homo sapiens, UniProt P00734); assay: Thrombin inhibition, fluorimetric enzyme assay; assay type: biochemical; details: 36.5° C., read-out: Residual Activity (%) Thrombin
Protocol: The enzyme was dissolved in 1 mL MES buffer (10 mM), 1 mM CaCl2, pH 7.0 at 36.5° C. Substrate was added in a concentration 10 times the Km, and the inhibitor compounds of type C (C16-KGnK-C16, C16-KAnK-C16, and C16-RAnR-C16) were added in increasing concentrations (1.0, 5.0, 10.0, 20.0, 40.0 μL) from a stock solution of 2 mg in 1 mL DMSO. The residual activity was measured in a Hitachi F2500 spectrofluorimeter, and plots were fitted using the Grafit® software (Erithracus Software, Horley, Surrey, UK). All the assays were calculated by the Morrison equation for competitive inhibition (eq. 1, [Morrison, 1969]). The amount of substrate used for the tight binding titration experiments follow all the requirements, where [S]<<Km for all enzymes, so the Kiapp=Ki. […]

[4] = biological target: T2, dengue 2 protease (Dengue virus type 2, UniProt P14340); assay: Dengue 2 protease inhibition in presence of Triton X-100 (detergent test, Nature Protocol); assay type: biochemical, dengue 2 virus; details: 0.05% Triton X-100; for Activity with 0.05% Triton: initial activity in UAF/min
T2 construct: The active site of the dengue protease is in the N-terminal part of NS3
Excerpt: A further investigation of the interactions of the geminoid inhibitors with biological membranes and with membrane-bound proteases is needed. […] The preparation and tests of peptides symmetrically, asymmetrically and singly alkylated with saturated, short (C6), and unsaturated (C18:1) alkyl tails are in progress.

[5] = biological target: T3, trypsin (Bos taurus, UniProt P00760); assay: Trypsin inhibition, fluorimetric enzyme assay; assay type: biochemical; details: 36.5° C., read-out: Residual Activity (%) Trypsin
T3 construct: gene PRSS1
T3 sequence (P00760 24-246): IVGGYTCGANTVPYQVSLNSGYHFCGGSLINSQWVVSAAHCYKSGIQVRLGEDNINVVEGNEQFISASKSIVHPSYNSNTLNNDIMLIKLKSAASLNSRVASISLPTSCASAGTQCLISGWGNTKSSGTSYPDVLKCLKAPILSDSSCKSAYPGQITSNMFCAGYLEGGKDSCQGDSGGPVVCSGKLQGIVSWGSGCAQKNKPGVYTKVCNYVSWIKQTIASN
Protocol: (§1) The enzyme was dissolved in 1 mL MES buffer (10 mM), 1 mM CaCl2, pH 7.0 at 36.5° C. Substrate was added in a concentration 10 times the Km, and the inhibitor compounds of type C (C16-KGnK-C16, C16-KAnK-C16, and C16-RAnR-C16) were added in increasing concentrations (1.0, 5.0, 10.0, 20.0, 40.0 μL) from a stock solution of 2 mg in 1 mL DMSO. The residual activity was measured in a Hitachi F2500 spectrofluorimeter, and plots were fitted using the Grafit® software (Erithracus Software, Horley, Surrey, UK). All the assays were calculated by the Morrison equation for competitive inhibition (eq. 1, [Morrison, 1969]). The amount of substrate used for the tight binding titration experiments follow all the requirements, where [S]<<Km for all enzymes, so the Kiapp=Ki.
The first group of gemini-like peptide amphiphiles to be screened was that of C16-K(G or A)nK-C16 (compound type C, with R1=n-C15H31, R2=n-C16H33). […] The results of the Ki determination for trypsin, dengue 2 protease, and human furin are given in Table 1A; some general data for the inhibition by this type of compounds are given in Table 1B. For most compounds in Table 1 the Ki could be derived from competitive inhibition experiments. Judging from the Ki values with the relatively simple substrate Z-RR-MCA, the best inhibitors for dengue 2 protease contain alanine (A) rather than glycine (G).

[6] = biological target: T2, dengue 2 protease; assay: Dengue 2 protease inhibition, hydrolysis of Z-RR-MCA; assay type: biochemical, dengue 2 virus; parameters: Activity with inhibitors: unit not given here; details: for Activity with inhibitors: 10 μM Z-RR-MCA, pH 9.0, 37° C., initial activity in UAF/min
Protocol: The active site of the dengue protease is in the N-terminal part of NS3 which is also a serine protease with catalytic triad Asp79-His51-Ser135, but requires […] (CF40) for activity; the inhibition reported here was studied on a […] (CF40-GGGGSGGGG-NS3; (SEQ ID NO:54)) which has also been structurally characterized [Erbel et al., 2006; Luo et al. 2008].
as §1, with “Substrate” for “The enzyme was dissolved in 1 mL MES buffer (10 mM), 1 mM CaCl2, pH 7.0 at 36.5° C. Substrate”
(§2) Range of Proteases Inhibited by Geminoids, Determination of Ki with Z-RR-MCA (Dengue 2 Protease) and Ac-RVRR-MCA (Furin) (SEQ ID NO:60).

[7] = biological target: human furin (Homo sapiens, UniProt P09958); assay: Human furin inhibition, hydrolysis of Ac-RVRR-MCA; assay type: biochemical
Protocol: as §1
However, for furin we used a correction of Ki app, where [S]˜Km (eq. 2).
as §2

human furin, sequence (P09958 108-794): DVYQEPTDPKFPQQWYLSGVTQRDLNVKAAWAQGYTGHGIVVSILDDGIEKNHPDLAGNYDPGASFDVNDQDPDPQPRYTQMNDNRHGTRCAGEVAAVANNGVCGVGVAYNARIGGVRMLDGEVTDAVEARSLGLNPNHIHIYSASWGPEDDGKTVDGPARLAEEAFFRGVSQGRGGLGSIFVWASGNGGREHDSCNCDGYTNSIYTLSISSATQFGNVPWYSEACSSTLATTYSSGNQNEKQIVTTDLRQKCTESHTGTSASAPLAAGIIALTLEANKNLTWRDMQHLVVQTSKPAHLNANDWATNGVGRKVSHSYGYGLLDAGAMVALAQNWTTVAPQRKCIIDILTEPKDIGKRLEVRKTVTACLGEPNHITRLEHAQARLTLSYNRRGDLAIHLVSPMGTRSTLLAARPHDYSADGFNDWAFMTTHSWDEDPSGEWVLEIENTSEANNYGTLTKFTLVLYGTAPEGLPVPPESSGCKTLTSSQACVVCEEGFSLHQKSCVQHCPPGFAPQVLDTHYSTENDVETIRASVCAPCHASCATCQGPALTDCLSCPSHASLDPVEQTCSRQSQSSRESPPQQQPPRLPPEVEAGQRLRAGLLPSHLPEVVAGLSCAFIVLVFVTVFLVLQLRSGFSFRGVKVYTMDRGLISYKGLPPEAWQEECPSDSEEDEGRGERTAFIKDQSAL
T2 sequence (P14340 1476-1653): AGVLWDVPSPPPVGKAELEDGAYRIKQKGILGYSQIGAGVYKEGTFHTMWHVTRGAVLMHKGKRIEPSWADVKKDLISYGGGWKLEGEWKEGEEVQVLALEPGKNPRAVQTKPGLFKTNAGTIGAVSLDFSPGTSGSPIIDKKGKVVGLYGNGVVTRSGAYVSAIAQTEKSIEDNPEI
T1 sequence (P14340 1476-1653): as above
T1 sequence (P14340 1398-1437): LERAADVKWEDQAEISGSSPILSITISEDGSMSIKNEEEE

For CCCCCCCCCCCCNC(=O)[C@H](CCCCN)NC(=O)[C@H](CCCCN)NC(=O)[C@H](CCCCN)NC(=O)[C@H](C)NC(=O)CCCCCCCCCCC [C12-AKKK-C12] (HELM PEPTIDE1{[CCCCCCCCCCCC(=O)[*:2]].A.K.K.K.[CCCCCCCCCCCCN[*:1]]}$$$$V2.0), the “Replicon activity [μM] (1)” value [1] was 0.1 µM, the IC50 [2] was 300 nM and the inhibition at 50 µM [2] was 98.5%.
In the case of CCCCCCCCCCCCNC(=O)[C@H](CCCCN)NC(=O)[C@H](CCCCN)NC(=O)[C@H](CCCCN)NC(=O)[C@H](CC(C)C)NC(=O)CCCCCCCCCCC [C12-LKKK-C12] (HELM PEPTIDE1{[CCCCCCCCCCCC(=O)[*:2]].L.K.K.K.[CCCCCCCCCCCCN[*:1]]}$$$$V2.0), the “Replicon activity [μM] (1)” value [1] is reported as 0.1 µM, the IC50 [2] is reported as 300 nM and the inhibition at 50 µM [2] is reported as 102%.
With CCCCCCCCCCCCCCCCNC(=O)[C@H](CCCCN)NC(=O)[C@H](CCC(N)=O)NC(=O)[C@H](CCCNC(=N)N)NC(=O)[C@H](C)NC(=O)CCCCCCCCCCCCCCC [C16-ARQK-C16] (HELM PEPTIDE1{[CCCCCCCCCCCCCCCC(=O)[*:2]].A.R.Q.K.[CCCCCCCCCCCCCCCCN[*:1]]}$$$$V2.0) the “Replicon activity [μM] (1)” value [1] was 5.0 µM, the IC50 [2] was 300 nM and the inhibition at 50 µM [2] was 95.7%.
CCCCCCCCCCCCCCCCNC(=O)[C@@H](CO)NC(=O)[C@@H](CCCCN)NC(=O)[C@@H](C)NC(=O)[C@@H](CCCCN)NC(=O)[C@@H](CC(C)C)NC(=O)CCCCCCCCCCCCCCC [C16-D-LKAKS-C16] (HELM PEPTIDE1{[CCCCCCCCCCCCCCCC(=O)[*:2]].[dL].[dK].[dA].[dK].[dS].[CCCCCCCCCCCCCCCCN[*:1]]}$$$$V2.0) was tested, and the “Replicon activity [μM] (1)” value [1] was 3.0 µM and the inhibition at 50 µM [2] was 97.4%.
In the case of CCCCCCCCCCCCCCCCNC(=O)[C@H](CCCCN)NC(=O)[C@H](CCCCN)NC(=O)[C@H](CCCCN)NC(=O)[C@H](Cc1ccccc1)NC(=O)CCCCCCCCCCCCCCC [C16-FKKK-C16] (HELM PEPTIDE1{[CCCCCCCCCCCCCCCC(=O)[*:2]].F.K.K.K.[CCCCCCCCCCCCCCCCN[*:1]]}$$$$V2.0), the “Replicon activity [μM] (1)” value [1] is reported as 5.0 µM, the IC50 [2] is reported as 200 nM and the inhibition at 50 µM [2] is reported as 95.8%.
With CCCCCCCCCCCCCCCCNC(=O)[C@H](CCCCN)NC(=O)[C@H](C)NC(=O)[C@H](C)NC(=O)[C@H](CCCCN)NC(=O)CCCCCCCCCCCCCCC [C16-KAAK-C16] (HELM PEPTIDE1{[CCCCCCCCCCCCCCCC(=O)[*:2]].K.A.A.K.[CCCCCCCCCCCCCCCCN[*:1]]}$$$$V2.0) the remaining activity at 15 µM ([3]; 15 μM inhibitor) was 80%, the remaining activity at 40 µM ([3]; 40 μM inhibitor) was 55% and the remaining activity at 80 µM ([3]; 80 μM inhibitor) was 39%. For the same molecule, the “Replicon activity [μM] (1)” value [1] was 3.0 µM, the inhibition at 50 µM [2] was 97.7% and the “% recovery in presence of Triton” value ([4]; 25 μM of inhibitor) was 56%. The “Activity with 0.05% Triton” value ([4]; 25 μM of inhibitor) was 100, the remaining activity at 15 µM ([5]; 15 μM inhibitor) was 64% and the remaining activity at 40 µM ([5]; 40 μM inhibitor) was 20%. The remaining activity at 80 µM ([5]; 80 μM inhibitor) was 7%, the Ki [6] was 630 nM and the activity at 2.5 µM ([6]; 2.5 μM inhibitor, 36.5° C.) was 89%. The activity at 5 µM ([6]; 5 μM inhibitor, 36.5° C.) was 79%, the activity at 10 µM ([6]; 10 μM inhibitor, 36.5° C.) was 68% and the activity at 15 µM ([6]; 15 μM inhibitor, 36.5° C.) was 45%. The Activity with inhibitors ([6]; 25 μM of inhibitor) was 0, the activity at 40 µM ([6]; 40 μM inhibitor, 36.5° C.) was 10% and the activity at 2.5 µM ([7]; 2.5 μM inhibitor, 36.5° C.) was 94%. The activity at 5 µM ([7]; 5 μM inhibitor, 36.5° C.) was 83%, the activity at 10 µM ([7]; 10 μM inhibitor, 36.5° C.) was 77% and the activity at 15 µM ([7]; 15 μM inhibitor, 36.5° C.) was 69%. It also gave an activity at 40 µM ([7]; 40 μM inhibitor, 36.5° C.) of 3% and a Ki ([7]; 10 mM Mes.NaOH, pH 7.0, 2.35 μM Ac-RVRR-MCA, 37° C., read-out: Ki hFurin) of 970 nM.
For CCCCCCCCCCCCCCCCNC(=O)[C@H](CO)NC(=O)[C@H](CCCCN)NC(=O)[C@H](C)NC(=O)[C@H](CCCCN)NC(=O)[C@H](CC(C)C)NC(=O)CCCCCCCCCCCCCCC [C16-LKAKS-C16] (HELM PEPTIDE1{[CCCCCCCCCCCCCCCC(=O)[*:2]].L.K.A.K.S.[CCCCCCCCCCCCCCCCN[*:1]]}$$$$V2.0), the “Replicon activity [μM] (1)” value [1] was 3.0 µM, the IC50 [2] was 300 nM and the inhibition at 50 µM [2] was 108%.
For CCCCCCCCCCCCCCCCNC(=O)[C@H](CCCCN)NC(=O)[C@H](CCC(N)=O)NC(=O)[C@H](C)NC(=O)[C@H](CCCNC(=N)N)NC(=O)CCCCCCCCCCCCCCC [C16-RAQK-C16] (HELM PEPTIDE1{[CCCCCCCCCCCCCCCC(=O)[*:2]].R.A.Q.K.[CCCCCCCCCCCCCCCCN[*:1]]}$$$$V2.0), the “Replicon activity [μM] (1)” value [1] was 10.0 µM, the IC50 [2] was 600 nM and the inhibition at 50 µM [2] was 102%.
CCCCCCCCCCCCCCCCNC(=O)[C@H](CCCNC(=N)N)NC(=O)[C@H](C)NC(=O)[C@H](CCCNC(=N)N)NC(=O)CCCCCCCCCCCCCCC [C16RARC16, n-C15H31C(O)-Arg-Ala-Arg-(n-C16H33).2TFA] was tested, and the “% recovery in presence of Triton” value ([4]; 5 μM of inhibitor) was 52%, the “Activity with 0.05% Triton” value ([4]; 5 μM of inhibitor) was 105 and the Ki [6] was 3100 nM. It also gave an Activity with inhibitors ([6]; 5 μM of inhibitor) of 27.
With “C16-AAQK-C16: geminoid in shorthand Cp-Zn-Cq, peptide SEQ ID NO: 78” the “Replicon activity [μM] (1)” value [1] was 5.0 µM and the “% Inhibition at 50 μM (2)” value [2] was 26.8%.
With “C16-AKAK-C16: geminoid in shorthand Cp-Zn-Cq, peptide SEQ ID NO: 74” the “Replicon activity [μM] (1)” value [1] was 3.0 µM and the “% Inhibition at 50 μM (2)” value [2] was 103.7%.
For “C16-AKAKG-C16: geminoid in shorthand Cp-Zn-Cq, peptide SEQ ID NO: 87”, the “Replicon activity [μM] (1)” value [1] was 3.0 µM and the “% Inhibition at 50 μM (2)” value [2] was 102.3%.
In the case of “C16-D-AKAK-L-S-C16: geminoid in shorthand Cp-Zn-Cq, D-AKAK with L-S, SEQ ID NO: 89 (C16-[dA][dK][dA][dK]S-C16)”, the “Replicon activity [μM] (1)” value [1] is reported as 3.0 µM and the “% Inhibition at 50 μM (2)” value [2] is reported as 108.0%.
In the case of “C16-LKAKG-C16: geminoid in shorthand Cp-Zn-Cq, peptide SEQ ID NO: 88”, the “Replicon activity [μM] (1)” value [1] is reported as 3.0 µM and the “% Inhibition at 50 μM (2)” value [2] is reported as 98.4%.
